Results: PubChem BioAssay AID330 (DTP/NCI, 2004)
“And” between values parts separate entries of the source, which are not always exact repeats. Equal values may be shown once. Toxic doses and inconclusive results are not listed. How the source made its calls: active means survival T/C of 150% or more; inactive means T/C below 125% in these data.

System: P388 leukemia ip, CD2F1 mice, survival T/C
Test: NCI In Vivo Anticancer Drug Screen. Data for tumor model P388 Leukemia (intraperitoneal) in CD2F1 (CDF1) mice
Conditions: endpoint: median survival time, higher = longer survival
Outline: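 Mice carrying the transplanted tumor received test compound or vehicle. Survival was recorded in each group, and the value is the treated-group measurement divided by that of the vehicle-treated control group.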

[1] = dose: 50.0 mg/kg/injection, schedule: Q01DX009 (ip), vehicle: saline with Tween-80
[2] = dose: 100.0 mg/kg/injection, schedule: Q01DX009 (ip), vehicle: saline with Tween-80
[3] = dose: 200.0 mg/kg/injection, schedule: Q01DX009 (ip), vehicle: saline with Tween-80
[4] = dose: 60.0 mg/kg/injection, schedule: Q01DX005 (ip), vehicle: Klucel (hydroxypropylcellulose) (HPC)
[5] = dose: 120.0 mg/kg/injection, schedule: Q01DX005 (ip), vehicle: Klucel (hydroxypropylcellulose) (HPC)
[6] = dose: 240.0 mg/kg/injection, schedule: Q01DX005 (ip), vehicle: Klucel (hydroxypropylcellulose) (HPC)
[7] = dose: 60.0 mg/kg/injection, schedule: Q01DX005 (ip), vehicle: saline with Tween-80
[8] = dose: 120.0 mg/kg/injection, schedule: Q01DX005 (ip), vehicle: saline with Tween-80
[9] = dose: 240.0 mg/kg/injection, schedule: Q01DX005 (ip), vehicle: saline with Tween-80
[10] = dose: 50.0 mg/kg/injection, schedule: Q01DX005 (ip), vehicle: saline with Tween-80
[11] = dose: 100.0 mg/kg/injection, schedule: Q01DX005 (ip), vehicle: saline with Tween-80
[12] = dose: 60.0 mg/kg/injection, schedule: Q01DX005 (ip), vehicle: saline
[13] = dose: 120.0 mg/kg/injection, schedule: Q01DX005 (ip), vehicle: saline
[14] = dose: 240.0 mg/kg/injection, schedule: Q01DX005 (ip), vehicle: saline
[15] = dose: 25.0 mg/kg/injection, schedule: Q01DX009 (ip), vehicle: other
[16] = dose: 50.0 mg/kg/injection, schedule: Q01DX009 (ip), vehicle: other
[17] = dose: 100.0 mg/kg/injection, schedule: Q01DX009 (ip), vehicle: other
[18] = dose: 200.0 mg/kg/injection, schedule: Q01DX009 (ip), vehicle: other
[19] = dose: 400.0 mg/kg/injection, schedule: Q01DX009 (ip), vehicle: other
[20] = dose: 12.5 mg/kg/injection, schedule: Q01DX005 (ip), vehicle: Klucel (hydroxypropylcellulose) (HPC)
[21] = dose: 25.0 mg/kg/injection, schedule: Q01DX005 (ip), vehicle: Klucel (hydroxypropylcellulose) (HPC)
[22] = dose: 100.0 mg/kg/injection, schedule: Q04DX002 (ip), vehicle: saline with Tween-80
[23] = dose: 200.0 mg/kg/injection, schedule: Q04DX002 (ip), vehicle: saline with Tween-80
[24] = dose: 400.0 mg/kg/injection, schedule: Q04DX002 (ip), vehicle: saline with Tween-80

Measured: T/C

CCOC(=O)CCC(NC(=O)c1ccc(NS(=O)(=O)c2ccc(C)cc2)cc1)C(=O)OCC (stereo not drawn)
inactive: dose: 3.13 mg/kg/injection, schedule: Q01DX009 (ip), vehicle: saline with Tween-80 93 % of control | dose: 6.25 mg/kg/injection, schedule: Q01DX009 (ip), vehicle: saline with Tween-80 93 % of control | dose: 12.5 mg/kg/injection, schedule: Q01DX009 (ip), vehicle: saline with Tween-80 86 % of control | [1] 110 % of control | [2] 100 % of control | [3] 99 % of control | dose: 400.0 mg/kg/injection, schedule: Q01DX009 (ip), vehicle: saline with Tween-80 99 % of control

CC(=O)[C-](I)C(C)=O.CC(=O)[C-](I)C(C)=O.CC(=O)[C-](I)C(C)=O.[Ru+3]
inactive: [4] 106 % of control | [5] 106 % of control | [6] 115 % of control

CCOC(=O)C12C3C(=O)N(CC)C(=O)C3ON1OC1C(=O)N(CC)C(=O)C12 (stereo not drawn)
inactive: [7] 100 % of control | [8] 100 % of control | [9] 95 % of control

COc1ccccc1Nc1nc(-c2ccc([N+](=O)[O-])o2)cs1
inactive: [10] 93 % of control | [11] 86 % of control | dose: 200.0 mg/kg/injection, schedule: Q01DX005 (ip), vehicle: saline with Tween-80 88 % of control

COC(=O)/C=N/O
inactive: [12] 99 % of control | [13] 102 % of control | [14] 102 % of control

C/C(=N\NC(=O)c1cc(C)nc2ccc(Br)cc12)c1ccccc1O
inactive: [1] 88 % of control | [2] 94 % of control | [3] 110 % of control

CCC(=O)/C(=C\c1ccccc1Cl)C(C)=O
inactive: dose: 100.0 mg/kg/injection, schedule: Q04DX003 (ip), vehicle: saline with Tween-80 105 % of control | dose: 200.0 mg/kg/injection, schedule: Q04DX003 (ip), vehicle: saline with Tween-80 110 % of control | dose: 400.0 mg/kg/injection, schedule: Q04DX003 (ip), vehicle: saline with Tween-80 95 % of control

O=NN(c1cccc(C(F)(F)F)c1)c1ccccn1
inactive: [15] 100 % of control | [16] 108 % of control | [17] 106 % of control | [18] 104 % of control | [19] 108 % of control

COc1ccc2nc(NN=O)sc2c1
inactive: dose: 1.56 mg/kg/injection, schedule: Q01DX009 (ip), vehicle: water 92 % of control | dose: 3.12 mg/kg/injection, schedule: Q01DX009 (ip), vehicle: water 101 % of control and 103 % of control | dose: 6.25 mg/kg/injection, schedule: Q01DX009 (ip), vehicle: water 100 % of control and 92 % of control | dose: 12.5 mg/kg/injection, schedule: Q01DX009 (ip), vehicle: water 100 % of control and 101 % of control | dose: 25.0 mg/kg/injection, schedule: Q01DX009 (ip), vehicle: water 104 % of control and 97 % of control | dose: 50.0 mg/kg/injection, schedule: Q01DX009 (ip), vehicle: water 111 % of control

Oc1ccc(N=Cc2ccc3c(c2)OCO3)cc1
inactive: dose: 12.5 mg/kg/injection, schedule: Q01DX009 (ip), vehicle: other 109 % of control | [15] 111 % of control | [16] 94 % of control | [17] 113 % of control | [18] 111 % of control | [19] 108 % of control

CSc1nc(Cl)cc(=O)n1C
inactive: dose: 6.25 mg/kg/injection, schedule: Q01DX005 (ip), vehicle: Klucel (hydroxypropylcellulose) (HPC) 104 % of control | [20] 105 % of control | [21] 100 % of control and 92 % of control

CN1C(=O)/C(=[N+](/[O-])c2ccccc2-c2ccccc2)c2ccccc21
inactive: [22] 99 % of control | [23] 100 % of control | [24] 97 % of control

COc1ccc(C2SCC(=O)N2c2nnc(C(F)(F)F)s2)c(OC)c1OC (stereo not drawn)
inactive: [22] 100 % of control | [23] 90 % of control | [24] 93 % of control

Nc1ncnc2c1c(-c1ccccc1)cn2-c1ccc(Br)cc1
inactive: [7] 108 % of control | [8] 100 % of control | [9] 96 % of control

S=C(NCc1ccccc1)N1CCC(CCCC2CCN(C(=S)NCc3ccccc3)CC2)CC1
inactive: [4] 92 % of control | [5] 91 % of control | [6] 88 % of control

Cc1ccc(S(=O)(=O)N2CCN(S(=O)(=O)c3ccc(C)cc3)COC2)cc1
inactive: [7] 102 % of control | [8] 97 % of control | [9] 104 % of control

CCOC(=O)C1=C(C)N(C)C(C)=C(C(=O)OCC)C1c1ccc(Cl)cc1
inactive: dose: 25.0 mg/kg/injection, schedule: Q01DX009 (ip), vehicle: distilled water + Tween-80 99 % of control | dose: 50.0 mg/kg/injection, schedule: Q01DX009 (ip), vehicle: distilled water + Tween-80 97 % of control | dose: 100.0 mg/kg/injection, schedule: Q01DX009 (ip), vehicle: distilled water + Tween-80 89 % of control | dose: 400.0 mg/kg/injection, schedule: Q01DX009 (ip), vehicle: distilled water + Tween-80 98 % of control

O=C1NC(=O)C(F)[CH]([Ge](=[O])[O][Ge](=[O])[CH]2NC(=O)NC(=O)C2F)N1 (stereo not drawn)
inactive: dose: 30.0 mg/kg/injection, schedule: Q04DX002 (ip), vehicle: water 100 % of control | dose: 60.0 mg/kg/injection, schedule: Q04DX002 (ip), vehicle: water 97 % of control | dose: 100.0 mg/kg/injection, schedule: Q04DX002 (ip), vehicle: water 91 % of control | dose: 120.0 mg/kg/injection, schedule: Q04DX002 (ip), vehicle: water 100 % of control | dose: 200.0 mg/kg/injection, schedule: Q04DX002 (ip), vehicle: water 92 % of control | dose: 240.0 mg/kg/injection, schedule: Q04DX002 (ip), vehicle: water 100 % of control

CCCCn1c(C)nc2ccccc21
inactive: [10] 100 % of control | [11] 100 % of control

O=C1C2CN(Cc3ccccc3)CC2C(=O)N1c1ccccc1 (stereo not drawn)
inactive: [4] 102 % of control | [5] 97 % of control | [6] 100 % of control

[N-]=[N+]=NCC1OC(n2cnc3c(N)ncnc32)CC1O (stereo not drawn)
inactive: [12] 104 % of control | [13] 100 % of control | [14] 104 % of control

CC(C)SC(=S)Nc1ccc(Cl)c(C(F)(F)F)c1
inactive: dose: 50.0 mg/kg/injection, schedule: Q01DX009 (ip), vehicle: saline 106 % of control | dose: 100.0 mg/kg/injection, schedule: Q01DX009 (ip), vehicle: saline 105 % of control | dose: 200.0 mg/kg/injection, schedule: Q01DX009 (ip), vehicle: saline 110 % of control

COc1ccc([I+]c2ccccc2)cc1
inactive: dose: 1.5 mg/kg/injection, schedule: Q01DX009 (ip), vehicle: saline 109 % of control | dose: 2.5 mg/kg/injection, schedule: Q01DX009 (ip), vehicle: saline sonified 100 % of control | dose: 3.0 mg/kg/injection, schedule: Q01DX009 (ip), vehicle: saline 109 % of control | dose: 6.0 mg/kg/injection, schedule: Q01DX009 (ip), vehicle: saline 122 % of control

c1ncc2n[pH]nc2n1 (stereo not drawn)
inactive: [12] 95 % of control | [13] 101 % of control | [14] 96 % of control

CCOC(=O)c1csc(Br)n1
inactive: [7] 104 % of control | [8] 100 % of control | [9] 100 % of control

CCN(CC)C(=O)c1ccc(C)c2c1Nc1c(c(C)c3oc(=O)c(C)nc3c1C(=O)N(CC)CC)O2
inactive: dose: 7.5 mg/kg/injection, schedule: Q01DX005 (ip), vehicle: Klucel (hydroxypropylcellulose) (HPC) 97 % of control | dose: 15.0 mg/kg/injection, schedule: Q01DX005 (ip), vehicle: Klucel (hydroxypropylcellulose) (HPC) 90 % of control | [5] 88 % of control | [6] 92 % of control

COc1ccc2c3c([nH]c2c1[N+](=O)[O-])C(C)NCC3 (stereo not drawn)
inactive: [20] 101 % of control | [21] 92 % of control | dose: 50.0 mg/kg/injection, schedule: Q01DX005 (ip), vehicle: Klucel (hydroxypropylcellulose) (HPC) 92 % of control
